Structures can show the parent of a compound that is named as a salt. Where two headings read alike, the source gives them in different places.
Tested on: PRKACA-PRKAR2A interaction (SmBiT-PRKACA / LgBiT-PRKAR2A), protein kinase A
Design: NanoLuc complementation counter-screen in cell extract, PRKACA with PRKAR2A, loss of luminescence, detects NanoLuc interference
Details: counter-screen for NanoLuc interference, 0.5 h, 20 µM, inhibitor

Question: `CN1CCN(c2ccc3nc(-c4c(N)c5c(F)cccc5[nH]c4=O)[nH]c3c2)CC1` [UM0142034:01, Dovitinib Dilactic acid] was tested. Which “Inh (PKA)” value (Inh (PKA)) did it give?
Answer: The value was 16.9%.

Question: Which “Inh (PKA)” value does the source give for `CCN1CC(CCN2CCOCC2)C(c2ccccc2)(c2ccccc2)C1=O` (stereo not shown) [UM0142035:01, Doxapram HCl] here?
Answer: Its value is 1.453%.

Question: For `C[C@H]1c2cccc(O)c2C(=O)C2=C(O)[C@]3(O)C(=O)C(C(N)=O)=C(O)[C@@H](N(C)C)[C@@H]3[C@@H](O)[C@@H]21` [UM0142036:01, Doxycycline HCl], which “Inh (PKA)” value (Inh (PKA)) is on record?
Answer: Its value is 1.035%.

Question: How did the “Inh (PKA)” value turn out when `Nc1nc(=O)n([C@@H]2CS[C@H](CO)O2)cc1F` [UM0142037:01, Emtricitabine] was run?
Answer: The value was -0.284%.

Question: With `C[C@]12CC[C@@H]3c4ccc(O)cc4CC[C@H]3[C@@H]1CCC2=O` [UM0142038:01, Estrone] as the compound, how does the “Inh (PKA)” value read?
Answer: The value was 7.468%.

Question: `O=C1[C@H](CC[C@H](O)c2ccc(F)cc2)[C@@H](c2ccc(O)cc2)N1c1ccc(F)cc1` [UM0142039:01, Ezetimibe] was tested. Which “Inh (PKA)” value did it give?
Answer: Its value is 29.66%.

Question: Which “Inh (PKA)” value does the source give for `CC(C(=O)O)c1ccc(-c2ccccc2)c(F)c1` (stereo not shown) [UM0142040:01, Flurbiprofen] here?
Answer: The value was 28.61%.

Question: `Nc1ccn([C@@H]2O[C@H](CO)[C@@H](O)C2(F)F)c(=O)n1` [UM0142041:01, Gemcitabine] was tested. Which “Inh (PKA)” value (Inh (PKA)) did it give?
Answer: The value was -0.03613%.

Question: How did the “Inh (PKA)” value turn out when `CC(C)c1noc(N2CCC(COc3ccc(-c4ccc(S(C)(=O)=O)cc4)nc3)CC2)n1` [UM0142042:01, GSK1292263] was run?
Answer: Its value is 2.417%.

Question: With `CNC(=O)c1c(F)cccc1Nc1nc(Nc2cc3c(ccn3C(=O)CN(C)C)cc2OC)nc2[nH]ccc12` [UM0142043:01, GSK1838705A] as the compound, how does the “Inh (PKA)” value read?
Answer: The value was 3.955%.

Question: Which “Inh (PKA)” value does the source give for `O=C(O)Cc1cccc(OCCCN(Cc2cccc(C(F)(F)F)c2Cl)CC(c2ccccc2)c2ccccc2)c1` [UM0142045:01, GW3965 HCl] here?
Answer: Its value is 20.75%.

Question: Which “Inh (PKA)” value does the source give for `CC(C)Cc1ccc(C(C)C(=O)O)cc1` (stereo not shown) [UM0142046:01, Ibuprofen] here?
Answer: Its value is 3.005%.

Question: `CCOC(=O)[C@H](CCc1ccccc1)N[C@@H](C)C(=O)N1C(=O)N(C)C[C@H]1C(=O)O` [UM0142047:01, Imidapril HCl] was tested. Which “Inh (PKA)” value did it give?
Answer: The value was 2.302%.

Question: Which “Inh (PKA)” value does the source give for `CNC(=O)c1ccc(-c2cnc3ncc(Cc4ccc5ncccc5c4)n3n2)cc1F` [UM0142048:01, INCB28060] here?
Answer: Its value is 6.016%.

Question: How did the “Inh (PKA)” value turn out when `CC(O)c1cc(C(=O)N[C@@H](C)Cn2ccc(-c3ccc(C#N)c(Cl)c3)n2)n[nH]1` (stereo partly shown) [UM0142049:01, ODM-201] was run?
Answer: The value was 2.703%.

Question: `COC(=O)C1=C(C)NC(C)=C(C(=O)OC(C)C)C1c1cccc2nonc12` (stereo not shown) [UM0142050:01, Isradipine (Dynacirc)] was tested. Which “Inh (PKA)” value did it give?
Answer: The value was 94.06%.

Question: For `COC(=O)C1=C(C#N)NC(C)=C(C(=O)OC(C)C)C1c1cccc([N+](=O)[O-])c1` (stereo not shown) [UM0142051:01, Nilvadipine], which “Inh (PKA)” value is on record?
Answer: The value was 88.81%.

Question: With `Nc1ccn([C@@H]2CS[C@H](CO)O2)c(=O)n1` [UM0142052:01, Lamivudine] as the compound, how does the “Inh (PKA)” value read?
Answer: The value was -0.4847%.

Question: Which “Inh (PKA)” value does the source give for `CCN(C(=O)c1c(O)c2c(Cl)cccc2n(C)c1=O)c1ccccc1` [UM0142053:01, Laquinimod (ABR-215062)] here?
Answer: The value was 1.122%.

Question: For `c1ccc(-c2nn3c(c2-c2ccnc4cc(OCCN5CCOCC5)ccc24)CCC3)nc1` [UM0142054:01, LY2109761], which “Inh (PKA)” value is on record?
Answer: The value was -0.08675%.

Question: How did the “Inh (PKA)” value turn out when `NC1=N[C@@]2(c3cc(NC(=O)c4ccc(F)cn4)ccc3F)COC[C@H]2CS1` [UM0142055:01, LY2886721] was run?
Answer: The value was 5.898%.

Question: `Nc1nc(CC(=O)Nc2ccc(CCNC[C@H](O)c3ccccc3)cc2)cs1` [UM0142057:01, Mirabegron (YM178)] was tested. Which “Inh (PKA)” value did it give?
Answer: Its value is 3.158%.

Question: Which “Inh (PKA)” value does the source give for `CN(C[C@@H]1COCCO1)S(=O)(=O)Nc1ccc2ccc3ncc(-c4cnn(C)c4)cc3c(=O)c2c1` [UM0142058:01, MK-2461] here?
Answer: Its value is 13.67%.

Question: With `Cn1cc(-c2cnn3c(N)c(Br)c([C@@H]4CCCNC4)nc23)cn1` [UM0142059:01, MK-8776 (SCH-900776)] as the compound, how does the “Inh (PKA)” value read?
Answer: Its value is 4.838%.

Question: `Cc1ccnc2c1NC(=O)c1cccnc1N2C1CC1` [UM0142060:01, Nevirapine] was tested. Which “Inh (PKA)” value did it give?
Answer: Its value is 3.121%.

Question: For `COCCOC(=O)C1=C(C)NC(C)=C(C(=O)OC(C)C)C1c1cccc([N+](=O)[O-])c1` (stereo not shown) [UM0142061:01, Nimodipine], which “Inh (PKA)” value is on record?
Answer: Its value is 89.11%.

Question: How did the “Inh (PKA)” value turn out when `COc1ccc(-c2ccc3ncc4c(c3c2)n(-c2ccc(N3CCNCC3)c(C(F)(F)F)c2)c(=O)n4C)cn1` [UM0142062:01, NVP-BGT226] was run?
Answer: The value was 19.52%.

Question: With `Cn1cc(-c2ccc3ncc(Cc4ccc5ncccc5c4)n3n2)cn1` [UM0142063:01, NVP-BVU972] as the compound, how does the “Inh (PKA)” value read?
Answer: The value was 13.19%.

Question: Which “Inh (PKA)” value does the source give for `COc1ccc(-c2cc3c(C)nc(N)nc3n([C@H]3CC[C@H](OCCO)CC3)c2=O)cn1` [UM0142064:01, PF-04691502] here?
Answer: The value was 7.804%.

Question: How did the “Inh (PKA)” value turn out when `CNC(=O)c1nn(C)c2c1C(C)(C)Cc1cnc(Nc3ccc(N4CCN(C)CC4)cc3)nc1-2` [UM0142065:01, PHA-848125] was run?
Answer: Its value is 8.149%.

Question: `O=C(O)C[C@H](O)C[C@H](O)/C=C/c1c(C2CC2)nc2ccccc2c1-c1ccc(F)cc1` [UM0142066:01, Pitavastatin Calcium] was tested. Which “Inh (PKA)” value did it give?
Answer: The value was 41.78%.

Question: With `CCn1nnc2c(N3CCOCC3)nc(-c3ccc(NC(=O)Nc4ccc(C(=O)N5CCN(C)CC5)cc4)cc3)nc21` [UM0142067:01, PKI-402] as the compound, how does the “Inh (PKA)” value read?
Answer: The value was 0.4885%.

Question: `CO[C@H]1/C=C/O[C@@]2(C)Oc3c(C)c(O)c4c(O)c(c5c(nc6cc(C)ccn65)c4c3C2=O)NC(=O)/C(C)=C\C=C\[C@H](C)[C@H](O)[C@@H](C)[C@@H](O)[C@@H](C)[C@H](OC(C)=O)[C@@H]1C` [UM0142068:01, Rifaximin (Xifaxan)] was tested. Which “Inh (PKA)” value did it give?
Answer: Its value is 35.34%.

Question: `CCN(C)C(=O)Oc1cccc([C@H](C)N(C)C)c1` [UM0142069:01, Rivastigmine Tartrate] was tested. Which “Inh (PKA)” value (Inh (PKA)) did it give?
Answer: Its value is 1.4%.

Question: For `CC(C)c1nc(N(C)S(C)(=O)=O)nc(-c2ccc(F)cc2)c1/C=C/[C@@H](O)C[C@@H](O)CC(=O)O` [UM0142070:01, Rosuvastatin Calcium], which “Inh (PKA)” value is on record?
Answer: Its value is 4.68%.

Question: How did the “Inh (PKA)” value turn out when `CN1CCN(c2nc(C3=C(c4c[nH]c5ccccc45)C(=O)NC3=O)c3ccccc3n2)CC1` [UM0142072:01, Sotrastaurin (AEB071)] was run?
Answer: The value was 65.03%.

Question: Which “Inh (PKA)” value does the source give for `CC(C)(O)CC(=O)NCCn1ccc2ncnc(Nc3ccc(Oc4cccc(C(F)(F)F)c4)c(Cl)c3)c21` [UM0142073:01, TAK-285] here?
Answer: Its value is 28.39%.

Question: For `Cc1cn([C@@H]2C[C@@H](O)[C@H](CO)O2)c(=O)[nH]c1=O` [UM0142074:01, Telbivudine], which “Inh (PKA)” value is on record?
Answer: The value was -0.434%.

Question: Which “Inh (PKA)” value does the source give for `COc1cc([C@@H]2c3cc4c(cc3[C@@H](O[C@@H]3O[C@@H]5CO[C@@H](c6cccs6)O[C@H]5[C@H](O)[C@H]3O)[C@H]3COC(=O)[C@H]23)OCO4)cc(OC)c1O` [UM0142075:01, Teniposide] here?
Answer: Its value is 6.975%.

Question: For `CSc1ccc2c(c1)N(CCC1CCCCN1C)c1ccccc1S2` (stereo not shown) [UM0142076:01, Thioridazine HCl], which “Inh (PKA)” value is on record?
Answer: The value was 11.27%.

Question: Which “Inh (PKA)” value (Inh (PKA)) does the source give for `COc1cc(Nc2ncc(F)c(Nc3ccc4c(n3)NC(=O)C(C)(C)O4)n2)cc(OC)c1OC` [UM0142079:01, R406] here?
Answer: Its value is 54.73%.

Question: `CN1CCc2c(c3ccccc3n2Cc2ccc(C(=O)NO)cc2)C1` [UM0142080:01, Tubastatin A HCl] was tested. Which “Inh (PKA)” value did it give?
Answer: The value was 2.454%.

Question: Which “Inh (PKA)” value does the source give for `CCCCCCCCc1ccc(CCC(N)(CO)CO)cc1` [UM0142081:01, Fingolimod (FTY720)] here?
Answer: The value was 6.851%.

Question: With `CNC(=O)c1cc(COc2nnc(Nc3ccc(Cl)cc3)c3ccoc23)ccn1` [UM0142083:01, Telatinib (BAY 57-9352)] as the compound, how does the “Inh (PKA)” value read?
Answer: Its value is 10.72%.

Question: Which “Inh (PKA)” value does the source give for `CC(C)n1nc(-c2ccc3oc(N)nc3c2)c2c(N)ncnc21` [UM0142084:01, INK 128 (MLN0128)] here?
Answer: Its value is 29.78%.

Question: How did the “Inh (PKA)” value turn out when `O=C(O)c1cccc(-c2noc(-c3ccccc3F)n2)c1` [UM0142085:01, PTC124 (Ataluren)] was run?
Answer: The value was 9.195%.

Reference: paper PMC9995496, “A screen for MeCP2-TBL1 interaction inhibitors using a luminescence-based assay” (Scientific Reports, 2023)
